This note sets out measurements from ChEMBL document CHEMBL5344406, “1,2,3-Triazole-containing hybrids with potential antibacterial activity against ESKAPE pathogens” (2022).

The MIC is the least concentration at which growth counts as inhibited.

Common to all, as to format: functional
Test [1] relates to Staphylococcus aureus. Put plainly: Antibacterial activity against methicillin-resistant Staphylococcus aureus clinical isolate 1 assessed as bacterial growth inhibition incubated for 8 hrs by CLSI based broth microdilution method. On the technique in general: In broth dilution the organism is exposed to a series of concentrations in liquid medium.
Test [2] concerns Staphylococcus aureus. Kind of test: Antibacterial activity against methicillin-resistant Staphylococcus aureus clinical isolate 2 assessed as bacterial growth inhibition incubated for 8 hrs by CLSI based broth microdilution method.
The subject of test [3] is Escherichia coli. Put plainly: Antibacterial activity against Escherichia coli assessed as bacterial growth inhibition by CLSI based broth microdilution method.
Test [4] relates to Staphylococcus aureus. Put plainly: Antibacterial activity against Staphylococcus aureus assessed as bacterial growth inhibition by CLSI based broth microdilution method.
Test [5] deals with Pseudomonas aeruginosa. Put plainly: Antibacterial activity against Pseudomonas aeruginosa assessed as bacterial growth inhibition by CLSI based broth microdilution method.
The next test concerns Bacillus subtilis. Put plainly: Antibacterial activity against Bacillus subtilis assessed as bacterial growth inhibition by broth microdilution method.
The subject of test [6] is Pseudomonas aeruginosa. Kind of test: Antibacterial activity against Pseudomonas aeruginosa assessed as bacterial growth inhibition by broth microdilution method.
Test [7] deals with Staphylococcus aureus. Put plainly: Antibacterial activity against Staphylococcus aureus ATCC 29213 assessed as bacterial growth inhibition incubated for 24 hrs by CLSI based broth dilution method.
The subject of test [8] is Staphylococcus aureus. Kind of test: Antibacterial activity against Staphylococcus aureus ATCC 43300 assessed as bacterial growth inhibition incubated for 24 hrs by CLSI based broth dilution method.
The subject of test [9] is Staphylococcus aureus. Put plainly: Antibacterial activity against Staphylococcus aureus clinical isolate 144 assessed as bacterial growth inhibition incubated for 24 hrs by CLSI based broth dilution method.
Test [10] deals with Staphylococcus aureus. Kind of test: Antibacterial activity against Staphylococcus aureus clinical isolate AD3 assessed as bacterial growth inhibition incubated for 24 hrs by CLSI based broth dilution method.
The test system of test [11] is Staphylococcus aureus. Put plainly: Antibacterial activity against Staphylococcus aureus clinical isolate 144 assessed as bacterial growth inhibition incubated for 24 hrs by broth microdilution method.
The subject of test [12] is Staphylococcus aureus. Kind of test: Antibacterial activity against Staphylococcus aureus ATCC 43300 assessed as bacterial growth inhibition incubated for 24 hrs by broth microdilution method.
Test [13] deals with Staphylococcus aureus. Kind of test: Antibacterial activity against Staphylococcus aureus ATCC 29213 assessed as bacterial growth inhibition incubated for 24 hrs by broth microdilution method.
The test system of test [14] is Staphylococcus aureus. Kind of test: Antibacterial activity against Staphylococcus aureus clinical isolate AD3 assessed as bacterial growth inhibition incubated for 24 hrs by broth microdilution method.
For a further test, the system named is Streptococcus pyogenes. Put plainly: Antibacterial activity against erythromycin-resistant Streptococcus pyogenes clinical isolate 2 assessed as bacterial growth inhibition incubated for 24 hrs by CLSI based broth microdilution method.
For test [15], the system named is Streptococcus pneumoniae. Kind of test: Antibacterial activity against erythromycin-resistant Streptococcus pneumoniae B1 expressing ermB assessed as bacterial growth inhibition incubated for 24 hrs by CLSI based broth microdilution method.
In test [16] the test system is Streptococcus pneumoniae. Kind of test: Antibacterial activity against erythromycin-resistant Streptococcus pneumoniae AB11 expressing ermB/mefA assessed as bacterial growth inhibition incubated for 24 hrs by CLSI based broth microdilution method.
Test [17] concerns Staphylococcus aureus. Kind of test: Antibacterial activity against methicillin-resistant Staphylococcus aureus ATCC 43300 assessed as bacterial growth inhibition incubated for 24 hrs by CLSI based broth microdilution method.
For test [18], the system named is Staphylococcus aureus. Kind of test: Antibacterial activity against penicillin-resistant Staphylococcus aureus ATCC 31007 assessed as bacterial growth inhibition incubated for 24 hrs by CLSI based broth microdilution method.
Test [19] deals with Escherichia coli. Kind of test: Antibacterial activity against Escherichia coli ATCC 25922 assessed as bacterial growth inhibition by broth microdilution method.
Test [20] deals with Staphylococcus aureus. Kind of test: Antibacterial activity against Staphylococcus aureus ATCC 25923 assessed as bacterial growth inhibition by broth microdilution method.
Test [21] concerns Escherichia coli. Put plainly: Antibacterial activity against Escherichia coli assessed as bacterial growth inhibition by broth microdilution method.
Test [22] deals with Staphylococcus aureus. Kind of test: Antibacterial activity against Staphylococcus aureus assessed as bacterial growth inhibition by broth microdilution method.
Test [23] deals with Escherichia coli. Put plainly: Antibacterial activity against Escherichia coli assessed as bacterial growth inhibition.
Test [24] has as its system Staphylococcus aureus. Kind of test: Antibacterial activity against Staphylococcus aureus assessed as bacterial growth inhibition.

Values after ≈ are worked out from the molar mass of the structure shown.

On to `CC(C)C[C@@H](N)C(=O)N[C@H]1C(=O)N[C@@H](CC(N)=O)C(=O)N[C@H]2C(=O)N[C@H]3C(=O)N[C@H](C(=O)N[C@H](C(=O)O)c4cc(O)cc(O)c4-c4cc3ccc4O)[C@H](O)c3ccc(c(Cl)c3)Oc3cc2cc(c3O[C@@H]2O[C@H](CO)[C@@H](O)[C@H](O)[C@H]2O[C@H]2C[C@](C)(N)[C@H](O)[C@H](C)O2)Oc2ccc(cc2Cl)[C@H]1O`, for which the MIC in the test on Staphylococcus aureus [1] and with Staphylococcus aureus [2] was 1.56 µg/mL (≈ 1.09 µM) each time.

In the case of `O=C(N/N=C/c1cn(-c2ccccc2)nc1-c1ccc([N+](=O)[O-])cc1)c1cccc(-n2cc(-c3ccccc3)nn2)c1`, the minimum inhibitory concentration (MIC) in the test with Escherichia coli [3], in the test on Staphylococcus aureus [4] and with Pseudomonas aeruginosa [5] was 4 µg/mL (≈ 7.21 µM) each time.

Regarding `O=C(N/N=C/c1cn(-c2ccccc2)nc1-c1ccc(Cl)cc1)c1cccc(-n2cc(-c3ccccc3)nn2)c1`, the MIC in the test with Escherichia coli [3], in the test on Staphylococcus aureus [4] and with Pseudomonas aeruginosa [5] was 4 µg/mL (≈ 7.35 µM) throughout.

As to `O=C(N/N=C/c1cn(-c2ccccc2)nc1-c1ccccc1)c1cccc(-n2cc(-c3ccccc3)nn2)c1`, the MIC with Escherichia coli [3], with Staphylococcus aureus [4] and in the test with Pseudomonas aeruginosa [5] was 4 µg/mL (≈ 7.85 µM) throughout.

For the compound `CC(C)C[C@H](C(=O)N[C@@H]1Cc2ccc(c(Cl)c2)Oc2cc3cc(c2O[C@@H]2O[C@H](CO)[C@@H](O)[C@H](O)[C@H]2O[C@H]2C[C@](C)(NCCCCCCCc4ccccc4)[C@H](O)[C@H](C)O2)Oc2ccc(cc2Cl)[C@@H](O)[C@@H]2NC(=O)[C@H](NC(=O)[C@@H]3NC(=O)[C@H](CC(=O)O)NC1=O)c1ccc(O)c(c1)-c1c(O)cc(O)cc1[C@H](C(=O)O)NC2=O)n1cc(COc2ccc(-c3ccc(OCc4cn([C@@H](CC(C)C)C(=O)N[C@H]5Cc6ccc(c(Cl)c6)Oc6cc7cc(c6O[C@H]6O[C@@H](CO)[C@H](O)[C@@H](O)[C@@H]6O[C@@H]6C[C@@](C)(NCCCCCCCc8ccccc8)[C@@H](O)[C@@H](C)O6)Oc6ccc(cc6Cl)[C@H](O)[C@H]6NC(=O)[C@@H](NC(=O)[C@H]7NC(=O)[C@@H](CC(=O)O)NC5=O)c5ccc(O)c(c5)-c5c(O)cc(O)cc5[C@@H](C(=O)O)NC6=O)nn4)cc3)cc2)nn1`, the MIC in the test with Staphylococcus aureus [1] and with Staphylococcus aureus [2] was 6.25 µg/mL (≈ 1.78 µM) throughout.

For the compound `C=CCCCCC1CC(=O)N1Cc1cn(-c2cccc(Cl)c2)nn1` (stereo unspecified), the MIC with Bacillus subtilis and in the test on Pseudomonas aeruginosa [6] was 1.25 µg/mL (≈ 3.62 µM) in each case.

`C=C[C@]1(C)C[C@@H](OC(=O)CN2CCN(C(=O)Cn3cc(CN4CCN(c5ccc(Cl)cc5)CC4)nn3)CC2)[C@@]2(C)[C@@H]3C(=O)CC[C@@]3(CC[C@@H]2C)[C@@H](C)[C@@H]1O`: the MIC with Staphylococcus aureus [7], with Staphylococcus aureus [8], with Staphylococcus aureus [9] and with Staphylococcus aureus [10] was 1 µg/mL (≈ 1.31 µM) each time.

On to `C=C[C@]1(C)C[C@@H](OC(=O)Cn2cc(CN3CCN(c4ccccc4C)CC3)nn2)[C@@]2(C)[C@@H]3C(=O)CC[C@@]3(CC[C@@H]2C)[C@@H](C)[C@@H]1O`, for which the MIC in the test on Staphylococcus aureus [11], with Staphylococcus aureus [12], in the test on Staphylococcus aureus [13] and with Staphylococcus aureus [14] was 0.5 µg/mL (≈ 0.809 µM) in each case.

Take `CCCCCc1ccc(-c2cn(CCCN3CCOC(=O)[C@H](C)[C@@H](O[C@H]4C[C@@](C)(OC)[C@@H](O)[C@H](C)O4)[C@H](C)[C@@H](O[C@H]4O[C@@H](C)C[C@@H](N(C)C)[C@@H]4O)[C@](C)(OC)C[C@@H](C)[C@H](O)[C@H](C)C3)nn2)cc1`: the MIC in the test with Streptococcus pyogenes, with Streptococcus pneumoniae [15], in the test with Streptococcus pneumoniae [16], in the test on Staphylococcus aureus [17] and with Staphylococcus aureus [18] was 4 µg/mL (≈ 4.23 µM) each time.

For `Cc1ccc2c(c1)C=C(c1nnn(Cc3cn(Cc4ccccc4)nn3)n1)CO2`, the MIC with Escherichia coli [19] and in the test on Staphylococcus aureus [20] was 6.5 µg/mL (≈ 16.9 µM) throughout.

Regarding `CC(=O)Nc1ccc(S(=O)(=O)n2cc(CN3CCS(=O)(=O)CC3)nn2)cc1`, the MIC with Escherichia coli [21], with Bacillus subtilis, in the test on Staphylococcus aureus [22] and in the test on Pseudomonas aeruginosa [6] was 1.56 µg/mL (≈ 3.77 µM) each time.

Take `Cn1c([N+](=O)[O-])cnc1COCc1cn(-c2ccnc3cc(Cl)ccc23)nn1`: the MIC in the test on Escherichia coli [23] and in the test on Staphylococcus aureus [24] was 1 µg/mL (≈ 2.5 µM) each time.
